From paper PMC11233931, “Remodeling tumor‐associated macrophage for anti‐cancer effects by rational design of irreversible inhibition of mitogen‐activated protein kinase‐activated protein kinase 2” (MedComm, 2024)

Experiments:
Test in all cases: Eurofins kinase selectivity profile against 380 other human recombinant kinases (Table S2)
Format in all cases: biochemical
[1] = molecular target: T1, 380 human recombinant protein kinases (Homo sapiens, UniProt Q16832); conditions: DDR2(h), read-out: Inhibition rate
T1 construct: purchased Eurofins (Celle Lévescault)
T1 sequence (Q16832 22-855): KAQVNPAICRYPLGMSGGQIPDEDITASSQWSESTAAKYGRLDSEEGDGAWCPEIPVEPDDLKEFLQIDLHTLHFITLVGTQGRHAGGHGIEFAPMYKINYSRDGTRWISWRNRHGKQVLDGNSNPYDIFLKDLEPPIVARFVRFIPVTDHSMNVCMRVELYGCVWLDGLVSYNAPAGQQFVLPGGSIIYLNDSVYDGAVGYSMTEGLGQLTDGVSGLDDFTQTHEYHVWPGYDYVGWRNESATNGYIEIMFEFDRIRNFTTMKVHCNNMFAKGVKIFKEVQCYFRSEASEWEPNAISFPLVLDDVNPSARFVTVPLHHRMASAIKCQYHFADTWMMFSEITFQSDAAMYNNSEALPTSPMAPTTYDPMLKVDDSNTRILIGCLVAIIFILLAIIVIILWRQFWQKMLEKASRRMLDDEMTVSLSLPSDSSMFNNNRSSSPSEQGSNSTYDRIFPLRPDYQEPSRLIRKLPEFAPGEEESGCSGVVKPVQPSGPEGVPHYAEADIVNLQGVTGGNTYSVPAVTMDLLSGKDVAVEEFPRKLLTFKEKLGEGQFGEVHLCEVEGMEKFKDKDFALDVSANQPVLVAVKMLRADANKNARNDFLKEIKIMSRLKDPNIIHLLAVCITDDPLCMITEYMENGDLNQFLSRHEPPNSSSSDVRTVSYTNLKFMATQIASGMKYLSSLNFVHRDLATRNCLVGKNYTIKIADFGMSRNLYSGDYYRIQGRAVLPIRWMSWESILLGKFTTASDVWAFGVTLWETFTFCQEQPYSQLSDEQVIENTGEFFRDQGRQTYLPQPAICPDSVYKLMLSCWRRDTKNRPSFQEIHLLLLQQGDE
Outline: (§1)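 The inhibitor was sent to a contract lab and screened at various concentrations against 380 human recombinant protein kinases. This served as a counter-screen for MK2 specificity.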

[2] = molecular target: T2, 380 human recombinant protein kinases (Homo sapiens, UniProt Q9P1W9); conditions: Pim-2(h), read-out: Inhibition rate
T2 construct: purchased Eurofins (Celle Lévescault)
Outline: as §1

[3] = molecular target: T3, 380 human recombinant protein kinases (Homo sapiens, UniProt P78527); conditions: DNA-PK(h), read-out: Inhibition rate (%)
T3 construct: purchased Eurofins (Celle Lévescault)
Outline: as §1

[4] = molecular target: T4, 380 human recombinant protein kinases (Homo sapiens, UniProt O14920); conditions: IKKβ(h), read-out: Inhibition rate
T4 construct: purchased Eurofins (Celle Lévescault)
T4 sequence (O14920 1-756): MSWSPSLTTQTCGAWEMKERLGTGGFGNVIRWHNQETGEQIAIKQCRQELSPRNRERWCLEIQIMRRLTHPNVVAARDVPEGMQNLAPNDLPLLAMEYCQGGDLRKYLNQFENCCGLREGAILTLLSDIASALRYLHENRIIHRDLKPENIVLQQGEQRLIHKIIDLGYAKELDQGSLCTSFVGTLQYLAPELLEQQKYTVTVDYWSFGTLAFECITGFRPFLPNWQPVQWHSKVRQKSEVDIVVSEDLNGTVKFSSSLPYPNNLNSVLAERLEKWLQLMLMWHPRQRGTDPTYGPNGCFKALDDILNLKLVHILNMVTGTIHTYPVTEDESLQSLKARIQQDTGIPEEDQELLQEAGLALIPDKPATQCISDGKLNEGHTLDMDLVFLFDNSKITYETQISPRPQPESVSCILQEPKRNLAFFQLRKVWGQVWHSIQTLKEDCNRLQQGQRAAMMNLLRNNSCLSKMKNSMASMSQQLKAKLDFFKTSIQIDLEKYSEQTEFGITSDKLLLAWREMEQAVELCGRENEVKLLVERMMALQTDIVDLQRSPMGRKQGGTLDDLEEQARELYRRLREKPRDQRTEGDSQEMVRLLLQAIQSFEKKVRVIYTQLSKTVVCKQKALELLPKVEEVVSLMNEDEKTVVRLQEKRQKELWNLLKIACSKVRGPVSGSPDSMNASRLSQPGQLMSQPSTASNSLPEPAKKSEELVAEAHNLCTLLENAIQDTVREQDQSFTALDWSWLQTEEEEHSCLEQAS
Outline: as §1

[5] = molecular target: T5, 380 human recombinant protein kinases (Homo sapiens, UniProt Q92519); conditions: TRB2(h), read-out: Inhibition rate (%)
T5 construct: purchased Eurofins (Celle Lévescault)
T5 sequence (Q92519 1-343): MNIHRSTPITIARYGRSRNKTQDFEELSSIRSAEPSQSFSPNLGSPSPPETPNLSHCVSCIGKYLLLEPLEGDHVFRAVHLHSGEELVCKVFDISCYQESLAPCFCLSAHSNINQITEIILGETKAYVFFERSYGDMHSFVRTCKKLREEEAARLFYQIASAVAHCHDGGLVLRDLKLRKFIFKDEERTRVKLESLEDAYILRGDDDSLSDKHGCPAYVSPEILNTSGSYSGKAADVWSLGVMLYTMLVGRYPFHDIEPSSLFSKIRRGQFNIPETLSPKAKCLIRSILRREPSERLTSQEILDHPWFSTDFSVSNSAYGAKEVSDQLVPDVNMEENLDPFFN
Outline: as §1

[6] = molecular target: T6, 380 human recombinant protein kinases (Homo sapiens, UniProt P06239); conditions: Lck(h), read-out: Inhibition rate
T6 construct: purchased Eurofins (Celle Lévescault)
Outline: as §1

T2 sequence (Q9P1W9 whole entry): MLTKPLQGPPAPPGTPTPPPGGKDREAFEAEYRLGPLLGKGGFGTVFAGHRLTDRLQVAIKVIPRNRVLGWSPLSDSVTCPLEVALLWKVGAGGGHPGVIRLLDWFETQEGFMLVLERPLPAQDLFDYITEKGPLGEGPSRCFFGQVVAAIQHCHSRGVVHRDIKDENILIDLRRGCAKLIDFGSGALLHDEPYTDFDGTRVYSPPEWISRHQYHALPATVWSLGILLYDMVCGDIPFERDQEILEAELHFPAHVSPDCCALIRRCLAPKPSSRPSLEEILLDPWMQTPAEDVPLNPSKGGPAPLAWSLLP
T3 sequence (P78527 whole entry): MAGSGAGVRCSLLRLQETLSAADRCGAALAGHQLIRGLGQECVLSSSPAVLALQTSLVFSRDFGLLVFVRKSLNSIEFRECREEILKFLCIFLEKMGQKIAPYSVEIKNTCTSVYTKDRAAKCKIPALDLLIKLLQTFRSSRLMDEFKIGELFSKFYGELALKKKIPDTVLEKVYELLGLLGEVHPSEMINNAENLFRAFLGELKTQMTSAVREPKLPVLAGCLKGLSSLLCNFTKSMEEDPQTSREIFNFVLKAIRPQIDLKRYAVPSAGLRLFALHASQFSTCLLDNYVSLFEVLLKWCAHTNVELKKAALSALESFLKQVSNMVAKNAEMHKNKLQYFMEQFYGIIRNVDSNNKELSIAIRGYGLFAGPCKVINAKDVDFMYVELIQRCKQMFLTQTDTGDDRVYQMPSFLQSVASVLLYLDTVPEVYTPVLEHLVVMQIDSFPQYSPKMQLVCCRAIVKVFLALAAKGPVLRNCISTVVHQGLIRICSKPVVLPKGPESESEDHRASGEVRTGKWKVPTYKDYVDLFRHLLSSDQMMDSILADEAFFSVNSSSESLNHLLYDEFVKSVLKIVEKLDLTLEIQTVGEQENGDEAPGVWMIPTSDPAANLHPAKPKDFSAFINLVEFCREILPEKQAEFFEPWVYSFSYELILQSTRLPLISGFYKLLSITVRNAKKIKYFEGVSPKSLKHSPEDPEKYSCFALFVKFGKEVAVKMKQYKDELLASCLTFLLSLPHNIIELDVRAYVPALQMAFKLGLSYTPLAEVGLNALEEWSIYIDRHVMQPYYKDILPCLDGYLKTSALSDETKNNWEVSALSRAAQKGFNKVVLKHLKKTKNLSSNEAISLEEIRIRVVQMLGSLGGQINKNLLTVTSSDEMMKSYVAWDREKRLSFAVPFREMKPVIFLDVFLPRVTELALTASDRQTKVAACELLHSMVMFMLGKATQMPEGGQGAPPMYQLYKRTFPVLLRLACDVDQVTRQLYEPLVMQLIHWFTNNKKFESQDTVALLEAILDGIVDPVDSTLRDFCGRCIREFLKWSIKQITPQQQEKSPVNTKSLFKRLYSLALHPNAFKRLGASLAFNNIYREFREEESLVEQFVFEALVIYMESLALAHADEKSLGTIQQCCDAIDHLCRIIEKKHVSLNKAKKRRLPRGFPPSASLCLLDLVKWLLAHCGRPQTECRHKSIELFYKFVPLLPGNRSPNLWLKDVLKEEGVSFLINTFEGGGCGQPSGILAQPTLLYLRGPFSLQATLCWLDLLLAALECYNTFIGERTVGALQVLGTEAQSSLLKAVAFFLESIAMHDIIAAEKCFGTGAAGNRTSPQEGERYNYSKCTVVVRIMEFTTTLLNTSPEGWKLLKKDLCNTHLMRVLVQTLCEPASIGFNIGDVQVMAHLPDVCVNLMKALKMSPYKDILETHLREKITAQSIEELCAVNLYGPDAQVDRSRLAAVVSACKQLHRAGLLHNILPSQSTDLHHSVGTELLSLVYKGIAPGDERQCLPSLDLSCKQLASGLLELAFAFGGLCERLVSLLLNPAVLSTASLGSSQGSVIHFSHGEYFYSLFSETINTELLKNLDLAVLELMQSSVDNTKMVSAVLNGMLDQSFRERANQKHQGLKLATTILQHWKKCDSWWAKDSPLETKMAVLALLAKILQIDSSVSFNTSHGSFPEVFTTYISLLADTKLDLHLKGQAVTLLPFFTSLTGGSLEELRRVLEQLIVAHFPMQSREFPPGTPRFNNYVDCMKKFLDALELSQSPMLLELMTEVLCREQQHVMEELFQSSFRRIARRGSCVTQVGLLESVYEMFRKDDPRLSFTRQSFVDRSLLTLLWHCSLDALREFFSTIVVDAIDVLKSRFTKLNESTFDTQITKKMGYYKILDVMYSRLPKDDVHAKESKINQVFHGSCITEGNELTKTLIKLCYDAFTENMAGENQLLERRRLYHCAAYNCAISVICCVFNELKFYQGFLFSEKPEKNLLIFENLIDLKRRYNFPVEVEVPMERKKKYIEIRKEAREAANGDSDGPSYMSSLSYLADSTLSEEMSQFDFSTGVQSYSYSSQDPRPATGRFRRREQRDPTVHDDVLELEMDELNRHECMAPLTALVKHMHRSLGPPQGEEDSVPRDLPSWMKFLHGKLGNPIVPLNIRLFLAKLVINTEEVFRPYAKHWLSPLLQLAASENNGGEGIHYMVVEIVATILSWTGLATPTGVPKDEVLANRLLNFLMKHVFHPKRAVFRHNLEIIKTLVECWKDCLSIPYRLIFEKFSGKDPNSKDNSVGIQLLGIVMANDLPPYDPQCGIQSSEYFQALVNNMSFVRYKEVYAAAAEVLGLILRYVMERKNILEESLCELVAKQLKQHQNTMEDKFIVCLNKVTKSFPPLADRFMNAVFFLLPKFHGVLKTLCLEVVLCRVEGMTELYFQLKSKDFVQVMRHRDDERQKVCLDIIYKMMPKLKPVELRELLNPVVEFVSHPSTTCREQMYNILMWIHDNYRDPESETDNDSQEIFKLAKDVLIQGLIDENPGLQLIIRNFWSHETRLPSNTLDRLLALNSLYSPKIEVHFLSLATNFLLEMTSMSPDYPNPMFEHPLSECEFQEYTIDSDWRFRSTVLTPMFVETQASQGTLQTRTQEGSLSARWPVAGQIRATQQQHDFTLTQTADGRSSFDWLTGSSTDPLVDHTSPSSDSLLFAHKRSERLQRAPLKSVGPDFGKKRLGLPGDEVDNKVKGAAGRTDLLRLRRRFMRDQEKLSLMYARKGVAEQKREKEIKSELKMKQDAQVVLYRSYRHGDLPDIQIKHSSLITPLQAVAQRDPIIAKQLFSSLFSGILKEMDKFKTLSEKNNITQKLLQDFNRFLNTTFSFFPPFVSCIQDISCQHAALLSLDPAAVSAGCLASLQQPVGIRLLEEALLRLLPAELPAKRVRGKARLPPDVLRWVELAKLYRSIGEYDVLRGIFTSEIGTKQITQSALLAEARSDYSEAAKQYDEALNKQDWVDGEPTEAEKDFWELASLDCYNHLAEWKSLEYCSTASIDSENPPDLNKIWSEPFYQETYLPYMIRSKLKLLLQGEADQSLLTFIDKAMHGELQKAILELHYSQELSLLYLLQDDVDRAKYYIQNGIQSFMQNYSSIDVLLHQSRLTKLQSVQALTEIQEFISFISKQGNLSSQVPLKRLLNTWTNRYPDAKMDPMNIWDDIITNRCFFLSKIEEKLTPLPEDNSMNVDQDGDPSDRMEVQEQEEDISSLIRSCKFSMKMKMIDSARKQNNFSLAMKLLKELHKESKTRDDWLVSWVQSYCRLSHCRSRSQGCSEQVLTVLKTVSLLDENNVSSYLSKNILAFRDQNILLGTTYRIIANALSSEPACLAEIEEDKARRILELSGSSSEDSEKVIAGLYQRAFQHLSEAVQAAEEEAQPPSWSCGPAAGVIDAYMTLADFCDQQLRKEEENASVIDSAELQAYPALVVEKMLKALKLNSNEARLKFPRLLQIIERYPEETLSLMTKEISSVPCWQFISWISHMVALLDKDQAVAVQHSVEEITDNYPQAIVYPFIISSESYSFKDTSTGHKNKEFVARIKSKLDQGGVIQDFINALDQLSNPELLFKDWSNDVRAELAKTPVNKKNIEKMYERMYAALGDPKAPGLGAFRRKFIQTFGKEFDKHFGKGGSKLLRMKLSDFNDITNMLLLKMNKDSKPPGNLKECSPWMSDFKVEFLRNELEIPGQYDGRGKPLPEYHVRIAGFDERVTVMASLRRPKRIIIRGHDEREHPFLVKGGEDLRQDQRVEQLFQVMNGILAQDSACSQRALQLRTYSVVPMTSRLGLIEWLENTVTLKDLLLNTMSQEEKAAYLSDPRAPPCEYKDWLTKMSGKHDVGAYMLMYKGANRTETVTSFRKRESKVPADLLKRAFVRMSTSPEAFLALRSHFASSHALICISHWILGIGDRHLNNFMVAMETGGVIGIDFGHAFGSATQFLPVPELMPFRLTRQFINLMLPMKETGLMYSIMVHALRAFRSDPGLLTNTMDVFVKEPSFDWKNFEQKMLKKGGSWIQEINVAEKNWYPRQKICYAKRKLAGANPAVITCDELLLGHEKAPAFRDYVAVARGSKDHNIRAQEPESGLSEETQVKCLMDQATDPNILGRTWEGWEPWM
T6 sequence (P06239 whole entry): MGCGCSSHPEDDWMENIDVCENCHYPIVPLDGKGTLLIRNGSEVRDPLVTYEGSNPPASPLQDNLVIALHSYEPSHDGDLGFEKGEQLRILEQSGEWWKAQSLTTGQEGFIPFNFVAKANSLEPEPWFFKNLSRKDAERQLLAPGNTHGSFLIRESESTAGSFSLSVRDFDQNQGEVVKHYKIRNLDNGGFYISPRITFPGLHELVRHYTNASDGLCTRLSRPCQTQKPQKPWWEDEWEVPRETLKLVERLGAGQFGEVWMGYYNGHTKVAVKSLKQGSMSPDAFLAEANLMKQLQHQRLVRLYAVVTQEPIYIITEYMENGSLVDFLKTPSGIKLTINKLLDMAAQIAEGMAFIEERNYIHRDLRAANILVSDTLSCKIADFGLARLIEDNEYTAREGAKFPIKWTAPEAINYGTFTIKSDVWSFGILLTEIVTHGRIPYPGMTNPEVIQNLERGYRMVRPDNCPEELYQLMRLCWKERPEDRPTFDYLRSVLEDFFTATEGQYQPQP

`C=CC(=O)Nc1cc(-c2cc(-c3cc4c([nH]3)CCNC4=O)ccn2)ccc1OC(F)(F)F` [compound 11] was tested, and the inhibition at 0.01 µM ([1]; 10 nM) was -7%, the inhibition at 0.1 µM ([1]; 100 nM) was -10% and the inhibition at 1 µM ([1]; 1000 nM) was -10%. The inhibition at 0.01 µM ([2]; 10 nM) was -3%, the inhibition at 0.1 µM ([2]; 100 nM) was 5% and the inhibition at 1 µM ([2]; 1000 nM) was 6%. It also gave an inhibition at 0.01 µM ([3]; 10 nM) of -1%, an inhibition at 0.1 µM ([3]; 100 nM) of 2% and an inhibition at 1 µM ([3]; 1000 nM) of 3%. For the same compound, the inhibition at 0.01 µM ([4]; 10 nM) was -15%, the inhibition at 0.1 µM ([4]; 100 nM) was -12% and the inhibition at 1 µM ([4]; 1000 nM) was -12%. For the same compound, the inhibition at 0.01 µM ([5]; 10 nM) was 29%, the inhibition at 0.1 µM ([5]; 100 nM) was 58% and the inhibition at 1 µM ([5]; 1000 nM) was 85%. The inhibition at 0.01 µM ([6]; 10 nM) was -7%, the inhibition at 0.1 µM ([6]; 100 nM) was -5% and the inhibition at 1 µM ([6]; 1000 nM) was -10%.
